From patent publication US9302018B2, “Fluorescent probe for imaging lymph nodes” (Eisai R&D Management Co., Ltd., priority 2010, dated 2016)

What was measured:
[1] = Maximum absorbance wavelength and molar extinction coefficient in ethanol; format: physicochemical; conditions: for Molar Extinction Coefficient (ε): in ethanol; for λmax (EtOH): maximum absorbance wavelength in ethanol
[2] = Fluorescence detectability of fluorescent probe in vitro (brightness score, Image J); format: physicochemical; conditions: excitation <780 nm, fluorescence >810 nm
Protocol: Near-infrared fluorescence intensity was measured for the fluorescent dye-containing liposomes prepared in the manner described above with an aqueous solution of ICG serving as a control. 100 μL of liposome suspension containing a dye of a predetermined concentration or the ICG aqueous solution were added to a 96-well plate and irradiated with excitation light (LED light source, <780 nm) to detect the generated fluorescence (>810 nm). Brightness was evaluated using Image J image processing software.
In the table, values indicate the brightness score as determined with the Image J software (maximum value: 255), with the values shown in parentheses indicate the standard deviation.

[3] = Fluorescence lifetime (TemPro fluorescence lifetime photometer); format: physicochemical; conditions: excitation 740 nm, fluorescence 816 nm
Protocol: The fluorescence lifetimes of the fluorescence probes of the present invention were measured. The TemPro fluorescence lifetime photometer (manufactured by Horiba, Ltd.) was used for measurement. Table 3 indicates the values for a chloroform solution containing each near-infrared fluorescent dye at a concentration of 3.2×10^−2 mM and an aqueous solution of ICG (control), and Table 4 indicates values obtained from each of the near-infrared fluorescent dyes incorporated in the liposomes at a concentration of 3.2×10^−2 mM. A 740 nm semiconductor laser was used for the excitation light, and the lifetime spectra obtained at a fluorescence wavelength of 816 nm was analyzed for two components.

[4] = tested on: mouse popliteal lymph node; assay: Fluorescent probe anchoring property in mouse popliteal lymph node; format: in vivo
Protocol: In order to investigate the lymph node anchoring property of the fluorescent probe, an ICG-8-containing fluorescent probe dispersion (liposome mean particle diameter: 240 nm, 0.2 mL, phospholipid concentration: 10 mM) or an ICG aqueous solution serving as a control (0.2 mL, 3.2 mM) was injected into the foreleg of mice (FIG. 6A) in the same manner as Example 5. Ten minutes later, the epidermal tissue was peeled off, and the site was irradiated with excitation light (LED light source, <780 nm) and the generated fluorescence (>810 nm) was detected with a monochromatic camera.
To investigate primary lymph node anchoring rate after the passage of a prescribed amount of time, an ICG-8-containing fluorescent probe or ICG aqueous solution was administered to mice in the same manner as described above. […] The p-values were calculated using Fisher's exact test.

[5] = chloroform solution, 3.2×10^−2 mM

For CCCCCCN(CCCCCC)c1ccc(OC2=C(/C=C/C3=[N+](CCCCS(=O)(=O)[O-])c4ccc5ccccc5c4C3(C)C)CCC/C2=C\C=C2\N(CCCCS(=O)(=O)[O-])c3ccc4ccccc4c3C2(C)C)cc1.[Na+] [ICG-9, sodium [4-(2-((E)-2-((E)-2-(4-(dihexyamino)phenoxy)-3-((E)-2-(1,1-dimethyl-3-(4-sulfonatebutyl)-1H-benzo[e]indol-2(3H)-ylidene)ethylidene)cyclohexenyl)vinyl)-1,1-dimethyl-1H-benzo[e]indolium-3-yl)butane-1-sulfonate]], the “Molar Extinction Coefficient (ε)” value [1] was 1.24×10^5 and the “λmax (EtOH)” value [1] was 810 nm.

For CC1(C)C(/C=C/C=C/C=C/C=C2/N(CCC(=O)O)c3ccc4ccccc4c3C2(C)C)=[N+](CCCCS(=O)(=O)[O-])c2ccc3ccccc3c21 [ICG-6, 4-(2-((1E,3E,5E,7E)-7-(3-(2-carboxyethyl)-1,1-dimethyl-1H-benzo[e]indol-2-(3H)-ylidene)hepta-1,3,5-trienyl)-1,1-dimethyl-1H-benzo[e]indolium-3-yl)butane-1-sulfonic acid], the “Molar Extinction Coefficient (ε)” value [1] was 1.86×10^5 and the “λmax (EtOH)” value [1] was 786 nm.

In the case of CC1(C)C(/C=C/C=C/C=C/C=C2\N(CCCCS(=O)(=O)[O-])c3ccc4ccccc4c3C2(C)C)=[N+](CCCCS(=O)(=O)[O-])c2ccc3ccccc3c21.[Na+] [ICG, Indocyanine green], the “Molar Extinction Coefficient (ε)” value [1] is reported as 1.47 × 10^5, the “λmax (EtOH)” value [1] is reported as 787 nm and the “brightness score (Image J, maximum value: 255), SD in parentheses” value (from here on “brightness score … SD in parentheses”) ([2]; dye concentration 3.2 mM) is reported as 27(5). For the same compound, the “brightness score … SD in parentheses” value ([2]; dye concentration 3.2 × 10−1 mM) was 38(6), the “brightness score … SD in parentheses” value ([2]; dye concentration 3.2 × 10−2 mM) was 98(5) and the “brightness score … SD in parentheses” value ([2]; dye concentration 3.2 × 10−3 mM) was 118(10). The “brightness score … SD in parentheses” value ([2]; dye concentration 3.2 × 10−4 mM) was 61(7), the “Fluorescence lifetime, first component (ns)” value ([3]; aqueous solution (control)) was 0.01~0.15 ns and the “No. of mice in which fluorescence was observed in primary lymph node only/total no. of mice in experiment” value ([4]; 1 h elapsed from administration) was 0/4. The “No. of mice in which fluorescence was observed in primary lymph node only/total no. of mice in experiment” value ([4]; 3 h elapsed from administration) was 2/5, the “No. of mice in which fluorescence was observed in primary lymph node only/total no. of mice in experiment” value ([4]; 6 h elapsed from administration) was 0/4 and the “No. of mice in which fluorescence was observed in primary lymph node only/total no. of mice in experiment” value ([4]; 24 h elapsed from administration) was 0/3. The “Lymph nodes from which fluorescence was detected” value ([4]; mice, 0.2 mL into foreleg, ten minutes later, probe liposome mean particle diameter 240 nm, ICG aqueous solution 3.2 mM) was “emitted at the first popliteal lymph node from the foreleg as well as from the second external iliac lymph node”.

For CCCCCCN1/C(=C/C=C/C=C/C=C/C2=[N+](CCCCS(=O)(=O)[O-])c3ccc4ccccc4c3C2(C)C)C(C)(C)c2c1ccc1ccccc21 [ICG-8-C6, 4(2-((1E,3E,5E,7E)-7-(1,1-dimethyl-3-hexyl-1H-benzo[e]indol-2(3H)-ylidene)hepta-1,3,5-trienyl)-1,1-dimethyl-1H-benzo[e]indolium-3-yl)butane-1-sulfonic acid], the “Molar Extinction Coefficient (ε)” value [1] was 2.34×10^5, the “λmax (EtOH)” value [1] was 787 nm and the “Fluorescence lifetime, first component (%)” value [3, 5] was 69%. For the same compound, the “Fluorescence lifetime, first component (ns)” value [3, 5] was 1.25 ns, the “Fluorescence lifetime, second component (%)” value [3, 5] was 31% and the “Fluorescence lifetime, second component (ns)” value [3, 5] was 0.31 ns.

For CCCCCCCCN1/C(=C/C=C/C=C/C=C/C2=[N+](CCCCS(=O)(=O)[O-])c3ccc4ccccc4c3C2(C)C)C(C)(C)c2c1ccc1ccccc21 [ICG-8-C8, 4(2-((1E,3E,5E,7E)-7-(1,1-dimethyl-3-octyl-1H-benzo[e]indol-2(3H)-ylidene)hepta-1,3,5-trienyl)-1,1-dimethyl-1H-benzo[e]indolium-3-yl)butane-1-sulfonic acid], the “Molar Extinction Coefficient (ε)” value [1] was 2.63×10^5 and the “λmax (EtOH)” value [1] was 788 nm.

With CCCCCCCCCCN1/C(=C/C=C/C=C/C=C/C2=[N+](CCCCS(=O)(=O)[O-])c3ccc4ccccc4c3C2(C)C)C(C)(C)c2c1ccc1ccccc21 [ICG-8-C10, 4(2-((1E,3E,5E,7E)-7-(1,1-dimethyl-3-decyl-1H-benzo[e]indol-2(3H)-ylidene)hepta-1,3,5-trienyl)-1,1-dimethyl-1H-benzo[e]indolium-3-yl)butane-1-sulfonic acid] the “Molar Extinction Coefficient (ε)” value [1] was 2.50 × 10^5, the “λmax (EtOH)” value [1] was 788 nm and the “Fluorescence lifetime, first component (%)” value [3, 5] was 67%. For the same compound, the “Fluorescence lifetime, first component (ns)” value [3, 5] was 1.27 ns, the “Fluorescence lifetime, second component (%)” value [3, 5] was 33% and the “Fluorescence lifetime, second component (ns)” value [3, 5] was 0.41 ns.

With CCCCN1/C(=C/C=C/C=C/C=C/C2=[N+](CCCCS(=O)(=O)[O-])c3ccc4ccccc4c3C2(C)C)C(C)(C)c2c1ccc1ccccc21 [ICG-8-C4, 4(2-((1E,3E,5E,7E)-7-(1,1-dimethyl-3-butyl-1H-benzo[e]indol-2(3H)-ylidene)hepta-1,3,5-trienyl)-1,1-dimethyl-1H-benzo[e]indolium-3-yl)butane-1-sulfonic acid] the “Molar Extinction Coefficient (ε)” value [1] was 2.52×10^5 and the “λmax (EtOH)” value [1] was 787 nm.
